Source: patent US20200131669A1, “CYCLIC PEPTIDE COMPOUND HAVING HIGH MEMBRANE PERMEABILITY, AND LIBRARY CONTAINING SAME” (Chugai Seiyaku Kabushiki Kaisha, priority 2017, published 2020)
Like-named read-outs stand apart in the source and are kept apart here. Starred links: 1 amine or outer side, 2 acyl side, 3 side chain; linkers in the order of their positions; H or OH if unused. Positions of bridges follow the written chain, without caps; N, C: chain ends. Non-standard residues stand in square brackets, D forms with d. Residues, ends and D or L forms follow the SMILES beside them. *: point of attachment. X7 = CC(C(=O)[C@H](Cc1ccccc1)N(C)[*:1])[C@@H](Cc1ccccc1)C(=O)[*:2]; X19 = CC(C)[C@@H](C(=O)C[C@H](C(=O)[*:2])[C@@H](C)O)N(C)[*:1]; NMeF = CN[C@@H](Cc1ccccc1)C(=O)O; 3Pal = N[C@@H](Cc1cccnc1)C(=O)O; NMeD = CN[C@@H](CC(=O)O)C(=O)O; aThr = C[C@H](O)[C@H](N)C(=O)O; NMeL = CN[C@@H](CC(C)C)C(=O)O; NMeV = CN[C@H](C(=O)O)C(C)C; NMeA = CN[C@@H](C)C(=O)O; Piperidide = C1CCN(*)CC1; dNMeA = CN[C@H](C)C(=O)O; NPrGly = CCCNCC(=O)O; Sar = CNCC(=O)O; tBu = CC(C)(C)*

Experiment: Caco-2 membrane permeability, improved method as used in the following Examples (96-well, 20 to 24 h preincubation)
Type: in vitro ADME
Conditions: human
Procedure, shortened: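 Papp (cm/sec) was derived from LC/MS of basal samples collected 180 min after apical dosing in FaSSIF/HBSS pH 6.0 with 1% DMSO, against a basal HBSS pH 7.4 receiver containing 4% BSA. Three-week Caco-2 cultures were first preincubated with compound in DMEM+FaSSIF at 37 °C for 20–24 h.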

| SMILES | Papp A→B at 180 min (Caco-2, Caco-2 (cm/sec)) [×10⁻⁶ cm/s] | other results |
| --- | --- | --- |
| CCCN1CC(=O)N(C)[C@@H](CC(C)C)C(=O)N[C@@H](COC(C)(C)C)C(=O)N(C)[C@@H](Cc2ccccc2)C(=O)N(C)[C@@H](Cc2ccccc2)C(=O)N[C@H](C(=O)N2CCCCC2)CC(=O)N[C@H](C)C(=O)N(C)[C@@H](Cc2ccccc2)C(=O)N[C@@H](C(C)C)C(=O)N(C)[C@@H](CC(C)C)C(=O)N[C@@H]([C@@H](C)O)C1=O [pd194] ([dA][NMeF]V[NMeL]T[NPrGly][NMeL]S(tBu)[NMeF][NMeF]D-Piperidide; lactam N-11) | 5.3 |  |
| CCCN1CC(=O)N(C)[C@@H](Cc2ccccc2)C(=O)N[C@@H]([C@@H](C)CC)C(=O)N(C)[C@@H](Cc2ccccc2)C(=O)N[C@@H]([C@@H](C)O)C(=O)N(C)CC(=O)N(C)[C@@H](Cc2ccccc2)C(=O)N(C)[C@@H](CC(C)C)C(=O)N[C@@H](COC(C)(C)C)C(=O)N(C)[C@@H](C(C)C)C(=O)N[C@H](C(=O)N2CCCCC2)CC1=O [pd195] ([NPrGly][NMeF]I[NMeF]T[Sar][NMeF][NMeL]S(tBu)[NMeV]D-Piperidide; lactam N-11) | 5 |  |
| CC(C)C[C@@H]1NC(=O)[C@H](Cc2ccccc2)N(C)C(=O)[C@@H]2CCCN2C(=O)C[C@@H](C(=O)N2CCCCC2)N(C)C(=O)[C@H](Cc2ccccc2)C(C)C(=O)[C@H](Cc2ccccc2)N(C)C(=O)[C@H](COC(C)(C)C)NC(=O)[C@H](C(C)C)N(C)C(=O)CN(C)C(=O)[C@H]([C@@H](C)O)NC(=O)[C@H](CC(C)C)N(C)C1=O (stereo partly drawn) [pd196] (P[NMeF]L[NMeL]T[Sar][NMeV]S(tBu)[X7][NMeD]-Piperidide; lactam N-10) |  | Papp A→B at 180 min (Caco-2, Papp, Table 23-1, sequences where ARC = 3, read-out: Caco-2): 4 ×10⁻⁶ cm/s |
| CC(C)C[C@@H]1NC(=O)[C@H](Cc2ccccc2)N(C)C(=O)[C@H](C)N(C)C(=O)C[C@@H](C(=O)N2CCCCC2)NC(=O)[C@H](C(C)C)N(C)C(=O)[C@H](Cc2ccccc2)N(C)C(=O)[C@H](COC(C)(C)C)NC(=O)[C@H](CC(C)C)N(C)C(=O)CN(C)C(=O)[C@H](Cc2cccnc2)NC(=O)[C@H](CC(C)C)N(C)C1=O [pd197] ([NMeA][NMeF]L[NMeL][3Pal][Sar][NMeL]S(tBu)[NMeF][NMeV]D-Piperidide; lactam N-11) | 3 |  |
| CC(C)C[C@@H]1NC(=O)[C@H](Cc2ccccc2)N(C)C(=O)[C@@H](C)N(C)C(=O)C[C@@H](C(=O)N2CCCCC2)N(C)C(=O)[C@H](Cc2ccccc2)N(C)C(=O)[C@H](Cc2ccccc2)N(C)C(=O)[C@H](COC(C)(C)C)NC(=O)[C@H](C(C)C)N(C)C(=O)CN(C)C(=O)[C@H]([C@@H](C)O)NC(=O)[C@H](CC(C)C)N(C)C1=O [pd199] ([dNMeA][NMeF]L[NMeL]T[Sar][NMeV]S(tBu)[NMeF][NMeF][NMeD]-Piperidide; lactam N-11) | 2.6 |  |
| CC(C)C[C@@H]1NC(=O)[C@H](Cc2ccccc2)N(C)C(=O)[C@H]2CCCN2C(=O)C[C@@H](C(=O)N2CCCCC2)N(C)C(=O)[C@H](Cc2ccccc2)N(C)C(=O)[C@H](Cc2ccccc2)N(C)C(=O)[C@H](COC(C)(C)C)NC(=O)[C@H](C(C)C)N(C)C(=O)CN(C)C(=O)[C@H]([C@@H](C)O)NC(=O)[C@H](CC(C)C)N(C)C1=O [pd200] ([dP][NMeF]L[NMeL]T[Sar][NMeV]S(tBu)[NMeF][NMeF][NMeD]-Piperidide; lactam N-11) | 2.6 |  |
| CC[C@H](C)[C@@H]1NC(=O)[C@H](CC(C)C)N(C)C(=O)[C@H](C)N(C)C(=O)[C@H]([C@H](C)O)NC(=O)[C@H](Cc2ccccc2)N(C)C(=O)[C@H](C)N(C)C(=O)[C@@H](C)N(C)C(=O)C[C@@H](C(=O)N(C)[C@@H](Cc2ccccc2)C(=O)N(C)[C@@H](Cc2ccccc2)C(=O)N[C@@H](C)C(=O)N2CCCCC2)NC(=O)[C@H](C(C)C)N(C)C(=O)[C@H](CC(C)C)N(C)C1=O [pd201] ([dNMeA][NMeA][NMeF][aThr][NMeA][NMeL]I[NMeL][NMeV]D[NMeF][NMeF]A-Piperidide; lactam N-10) |  | Papp A→B at 180 min (Caco-2, read-out: Caco-2): 2.3 ×10⁻⁶ cm/s |
| CC(C)C[C@@H]1NC(=O)[C@H](Cc2ccccc2)N(C)C(=O)[C@H](C)N(C)C(=O)C[C@@H](C(=O)N2CCCCC2)N(C)C(=O)[C@H](Cc2ccccc2)N(C)C(=O)[C@H](Cc2ccccc2)N(C)C(=O)[C@H](COC(C)(C)C)NC(=O)[C@H](C(C)C)N(C)C(=O)CN(C)C(=O)[C@H]([C@@H](C)O)NC(=O)[C@H](CC(C)C)N(C)C1=O [pd202] ([NMeA][NMeF]L[NMeL]T[Sar][NMeV]S(tBu)[NMeF][NMeF][NMeD]-Piperidide; lactam N-11) | 2.1 |  |
| CC(C)C[C@@H]1NC(=O)[C@H](Cc2ccccc2)N(C)C(=O)[C@@H]2CCCN2C(=O)C[C@@H](C(=O)N2CCCCC2)NC(=O)[C@H](Cc2ccccc2)N(C)C(=O)[C@H](Cc2ccccc2)N(C)C(=O)[C@H](COC(C)(C)C)NC(=O)[C@H](CC(C)C)N(C)C(=O)CN(C)C(=O)[C@H]([C@@H](C)O)NC(=O)[C@H](CC(C)C)N(C)C1=O [pd203] (P[NMeF]L[NMeL]T[Sar][NMeL]S(tBu)[NMeF][NMeF]D-Piperidide; lactam N-11) | 2.1 |  |
| CC(C)C[C@@H]1NC(=O)[C@H](C)N(C)C(=O)C[C@@H](C(=O)N2CCCCC2)NC(=O)[C@H](CC(C)C)N(C)C(=O)CN(C)C(=O)[C@H]([C@@H](C)O)NC(=O)[C@H](Cc2ccccc2)N(C)C(=O)[C@H](Cc2ccccc2)N(C)C(=O)[C@H](CC(C)C)NC(=O)[C@H](Cc2ccccc2)N(C)C(=O)[C@H](CC(C)C)N(C)C1=O [pd204] ([NMeA]L[NMeL][NMeF]L[NMeF][NMeF]T[Sar][NMeL]D-Piperidide; lactam N-11) | 2 |  |
| CC[C@H](C)[C@@H]1NC(=O)[C@H](Cc2ccccc2)N(C)C(=O)CN(C)C(=O)C[C@@H](C(=O)N2CCCCC2)NC(=O)[C@H](C(C)C)N(C)C(=O)[C@H](COC(C)(C)C)NC(=O)[C@H](CC(C)C)N(C)C(=O)[C@H](Cc2ccccc2)N(C)C(=O)CN(C)C(=O)[C@H]([C@@H](C)O)NC(=O)[C@H](Cc2ccccc2)N(C)C1=O [pd205] ([Sar][NMeF]I[NMeF]T[Sar][NMeF][NMeL]S(tBu)[NMeV]D-Piperidide; lactam N-11) | 1.8 |  |
| CC(C)C[C@@H]1NC(=O)[C@H](Cc2ccccc2)N(C)C(=O)[C@H]2CCCN2C(=O)C[C@@H](C(=O)N2CCCCC2)NC(=O)[C@H](Cc2ccccc2)N(C)C(=O)[C@H](Cc2ccccc2)N(C)C(=O)[C@H](COC(C)(C)C)NC(=O)[C@H](CC(C)C)N(C)C(=O)CN(C)C(=O)[C@H]([C@@H](C)O)NC(=O)[C@H](CC(C)C)N(C)C1=O [pd206] ([dP][NMeF]L[NMeL]T[Sar][NMeL]S(tBu)[NMeF][NMeF]D-Piperidide; lactam N-11) | 1.8 |  |
| CC(C)C[C@@H]1NC(=O)[C@H](Cc2ccccc2)N(C)C(=O)[C@H](COC(C)(C)C)NC(=O)[C@H](Cc2ccccc2)N(C)C(=O)[C@H](C)N(C)C(=O)[C@H](CC(C)C)N(C)C(=O)[C@@H](C)NC(=O)C[C@@H](C(=O)N2CCCCC2)N(C)C(=O)[C@H](Cc2ccccc2)N(C)C(=O)[C@H]([C@@H](C)O)NC(=O)[C@H](C(C)C)N(C)C1=O [pd208] ([dA][NMeL][NMeA][NMeF]S(tBu)[NMeF]L[NMeV]T[NMeF][NMeD]-Piperidide; lactam N-11) | 1.7 |  |
| CC(C)C[C@@H]1NC(=O)[C@H](Cc2ccccc2)N(C)C(=O)[C@H](C)NC(=O)C[C@@H](C(=O)N2CCCCC2)N(C)C(=O)[C@H](Cc2ccccc2)N(C)C(=O)[C@H](Cc2ccccc2)N(C)C(=O)[C@H](COC(C)(C)C)NC(=O)[C@H](CC(C)C)N(C)C(=O)CN(C)C(=O)[C@H]([C@@H](C)O)NC(=O)[C@H](CC(C)C)N(C)C1=O [pd209] (A[NMeF]L[NMeL]T[Sar][NMeL]S(tBu)[NMeF][NMeF][NMeD]-Piperidide; lactam N-11) | 1.7 |  |
| CC(C)C[C@H]1C(=O)N[C@@H](COC(C)(C)C)C(=O)N(C)[C@@H](Cc2ccccc2)C(=O)N(C)[C@@H](CC(C)C)C(=O)N[C@H](C(=O)N2CCCCC2)CC(=O)N[C@H](C(C)C)C(=O)N(C)[C@@H](Cc2ccccc2)C(=O)N[C@@H](C(C)C)C(=O)N(C)[C@@H](Cc2ccccc2)C(=O)N[C@@H]([C@@H](C)O)C(=O)N(C)CC(=O)N1C [pd210] ([dV][NMeF]V[NMeF]T[Sar][NMeL]S(tBu)[NMeF][NMeL]D-Piperidide; lactam N-11) | 1.6 |  |
| CC(C)C[C@@H]1NC(=O)[C@H](CC(C)C)N(C)C(=O)[C@H](C)N(C)C(=O)C[C@@H](C(=O)N2CCCCC2)NC(=O)[C@H](CC(C)C)N(C)C(=O)[C@H](Cc2ccccc2)N(C)C(=O)[C@H](Cc2ccccc2)N(C)C(=O)[C@H]([C@@H](C)O)NC(=O)[C@H](Cc2ccccc2)N(C)C1=O [pd211] ([NMeA][NMeL]L[NMeF]T[NMeF][NMeF][NMeL]D-Piperidide; lactam N-9) | 1.4 |  |
| CC(C)C[C@H]1C(=O)N[C@H](C(=O)N(C)[C@@H](Cc2ccccc2)C(=O)N[C@@H](C)C(=O)N2CCCCC2)CC(=O)N(C)[C@@H](C)C(=O)N[C@@H]([C@@H](C)O)C(=O)N(C)[C@@H](C)C(=O)N(C)[C@@H](CC(C)C)C(=O)N[C@@H](C(C)C)C(=O)N(C)[C@@H](Cc2ccccc2)C(=O)N[C@@H](Cc2ccccc2)C(=O)N1C [pd212] ([NMeA]T[NMeA][NMeL]V[NMeF]F[NMeL]D[NMeF]A-Piperidide; lactam N-9) | 1.4 |  |
| CC(C)C[C@@H]1NC(=O)[C@H](Cc2ccccc2)N(C)C(=O)[C@H](COC(C)(C)C)NC(=O)[C@H](Cc2ccccc2)N(C)C(=O)[C@H](C)N(C)C(=O)[C@H](CC(C)C)N(C)C(=O)[C@H](C)N(C)C(=O)C[C@@H](C(=O)N2CCCCC2)N(C)C(=O)[C@H](Cc2ccccc2)N(C)C(=O)[C@H]([C@@H](C)O)CC(=O)[C@H](C(C)C)N(C)C1=O [pd213] ([NMeA][NMeL][NMeA][NMeF]S(tBu)[NMeF]L[X19][NMeF][NMeD]-Piperidide; lactam N-10) | 1.3 |  |
